{"source": "patent US9284292B2", "about": "“Sialochimeric compounds” (THERAPICON S.R.L., priority 2009, dated 2016)", "tested_on": "influenza virus A/H1N1(H275Y) (A/Parma/38/2008)", "assay_type": "cell-based, influenza virus type A", "note": "pEC50: −log10 of the molar value.", "data": [{"compound": "CCOC(=O)C1=CC(OC(CC)CC)C(NC(C)=O)C(NC2(C(=O)O)CC(O)C(NC(C)=O)C(CNC34CC5CC(CC(C5)C3)C4)O2)C1", "note": "(centres unmarked) [THE 08/01, Amantadine-C7-Neu5Ac—C16H28N2O4]", "values": [{"measurement": "pEC50", "result": 4.84}, {"measurement": "antiviral activity in vitro versus influenza virus A/H1N1(H275Y)", "result": "comparable to that determined versus A/H1N1"}]}]}
